Data: article PMC8318231, “Rate-of-Kill (RoK) assays to triage large compound sets for Chagas disease drug discovery: Application to GSK Chagas Box” (PLoS Neglected Tropical Diseases, 2021)

How the values were obtained:
[1] = tested on: TcCYP51; settings: formerly reported; cited from earlier work
[2] = tested on: T. cruzi Tulahuen trypomastigotes; test: T. cruzi trypomastigote assay (Cell Titer-Glo viability, ATP luminescence); assay type: cell-based, Trypanosoma cruzi; settings: for Trypomastigotes pIC50 48 hours: 48 hours incubation; for Trypomastigotes pIC50 48 hours / Trypomastigotes pIC50 72 hours: pIC50 = -log10 IC50 in molar units; for Trypomastigotes pIC50 72 hours: 72 hours incubation; for 48 pIC50 / 72 pIC50: trypomastigote assay; for 48 pIC50: 48 h; for 72 pIC50: 72 h
Description: T. cruzi Tulahuen trypomastigotes obtained from the supernatants of LLC-MK2 infected cultures in a 225 cm^2 T-Flasks harvested between days 5 and 8 of infection. Trypomastigotes (5 × 10^4 per well) in 50 μl of DMEM/ 2% FBS were dispensed into white 384 plates (Greiner) pre-stamped with 250 nl compound a single-shot final concentration of 5 μM, or in dose response. […] Cell Titer-Glo cell viability solution (Promega) was added to each well (50 μL) incubated at room temperature for 10 min and luminescence read by Envision plate reader (Perkin Elmer). This assay quantifies the amount of ATP present which is directly proportional to the number of metabolically active cells. All data were normalised (100% effect control for no cells and 0% effect control for DMSO). This assay was adapted from MacLean et al., 2018 [22].

Row | Structure (SMILES) | CYP51 pIC50 [1] | Trypomastigotes pIC50 48 hours [2] | Trypomastigotes pIC50 72 hours [2] | 48 pIC50 ([2]; figure 1A) | 72 pIC50 ([2]; figure 1A) | 72 pIC50 ([2]; figure 1B)
1 | CC1(C)CCC(=Cc2ccc(Cl)cc2)CC1(O)Cn1ccnc1 (centres unmarked) [TCMDC-125222] | 7.3 | 5.1 | 4.8 |  |  | 
2 | Nc1ncnc2c1ncn2[C@@H]1O[C@H](CO)C[C@H]1O [TCMDC-143080] | < 4 | < 4.3 | 6 |  |  | 
3 | O=C1CCCCCC1(Cc1cnc[nH]1)c1ccc(Cl)cc1Cl (centres unmarked) [TCMDC-143081] | 7 | < 4.3 | < 4.3 | < 4.3 | < 4.3 | < 4.3
4 | Cl.Clc1ccc(C(CC2CCCCO2)Cn2cncn2)c(Cl)c1 (centres unmarked) [TCMDC-143082] | 6.6 | < 4.3 | < 4.3 | < 4.3 | < 4.3 | < 4.3
5 | Cn1nc([N+](=O)[O-])nc1N1CCCCC1 [TCMDC-143088] | < 4 | < 4.3 | < 4.3 | < 4.3 | < 4.3 | < 4.3
6 | O=C(NCc1ccc(-n2cccc2)cc1)c1nc(Cn2ccc([N+](=O)[O-])n2)no1 [TCMDC-143103] | < 4 | 6 | 5.9 |  |  | 
7 | COc1cccc(-c2cc(C(F)(F)F)nc(-n3ccc([N+](=O)[O-])n3)n2)c1 [TCMDC-143105] | < 4 | 5.8 | 6 |  |  | 
8 | CN(C)CCN(C)Cc1ccc(F)cc1NS(=O)(=O)c1ccc(Cl)c(Cl)c1 [TCMDC-143118] | < 4 | 5.9 | 5.9 | 5.9 | 5.9 | 5.9
9 | N#Cc1nc(C=Cc2ccccc2)oc1NCc1cccnc1 [TCMDC-143120] |  | 4.5 | < 4.3 |  |  | 
10 | Cn1nc([N+](=O)[O-])nc1Oc1ccc(C(=O)c2ccccc2)cc1 [TCMDC-143126] | < 4 | 6 | 6.1 |  |  | 
11 | O=S(=O)(NCC(c1cccnc1)N1CCN(c2ccccc2F)CC1)c1ccc(F)cc1 (centres unmarked) [TCMDC-143142] | 7.1 | < 4.3 | < 4.3 | < 4.3 | < 4.3 | < 4.3
12 | N#Cc1cc([N+](=O)[O-])ccc1NC1CCCCCC1 [TCMDC-143143] | < 4 | < 4.3 | < 4.3 | < 4.3 | < 4.3 | < 4.3
13 | C=CCOCC1Cn2nc([N+](=O)[O-])nc2O1 (centres unmarked) [TCMDC-143149] | < 4 | < 4.3 | < 4.3 | < 4.3 | < 4.3 | < 4.3
14 | Cc1ccc(NC(=O)c2ccc(Cl)c(NC(=O)c3ccc([N+](=O)[O-])cc3)c2)cc1 [TCMDC-143150] | < 4 | 5.8 | 5.6 |  |  | 
15 | C=CCn1nc([N+](=O)[O-])nc1Oc1ccc(Cl)cc1Cl [TCMDC-143151] | 4.7 | 6.1 | 6.3 |  |  | 
16 | Cc1c(CNC(=O)c2ccc(Cn3cc(Cl)c([N+](=O)[O-])n3)cc2)cnn1C [TCMDC-143153] | < 4 | 4.7 | 5.3 |  |  | 
17 | Cc1c([N+](=O)[O-])c(C(=O)Nc2sc3c(c2C#N)CCC(C)C3)nn1C (centres unmarked) [TCMDC-143155] | < 4 | 5.3 | 5.3 | 5.3 | 5.3 | 5.3
18 | O=C(Nc1ccc(Br)cn1)c1ccc(Cn2cnc([N+](=O)[O-])n2)cc1 [TCMDC-143156] | < 4 | 6.1 | 6.1 | 6.1 | 6.1 | 6.1
19 | CC1=NN(C(=O)CCn2cnc([N+](=O)[O-])n2)C(O)(C(F)(F)F)C1 (centres unmarked) [TCMDC-143157] | < 4 | < 4.3 | < 4.3 | < 4.3 | < 4.3 | < 4.3
20 | O=C(c1cc2cc(Cl)ccc2[nH]1)N1CCCCC1c1cccnc1 (centres unmarked) [TCMDC-143159] | 7.2 | 4.5 | 4.4 |  |  | 

Row | Structure (SMILES) | CYP51 pIC50 [1] | Trypomastigotes pIC50 48 hours [2] | Trypomastigotes pIC50 72 hours [2] | 48 pIC50 ([2]; figure 1A) | 72 pIC50 ([2]; figure 1A) | 72 pIC50 ([2]; figure 1B)
21 | O=S(=O)(c1ccccc1C(F)(F)F)N1CCN(Cc2ccc(-n3ccnc3)cc2)CC1 [TCMDC-143161] | 7 | < 4.3 | < 4.3 | < 4.3 | < 4.3 | < 4.3
22 | CC1(Oc2cncc(Cl)c2)CCN(Cc2cc3ccccc3[nH]2)C1 (centres unmarked) [TCMDC-143162] | 5 | 5.6 | 6.1 |  |  | 
23 | CC(=O)Nc1ccc(-c2csc(NC(=O)c3ccc([N+](=O)[O-])s3)n2)cc1 [TCMDC-143164] | 5.2 | 6.4 | 6.6 |  |  | 
24 | N#Cc1cccc(CN2CCC(N(Cc3cccnc3)C(=O)c3cc(F)c(F)cc3F)CC2)c1 [TCMDC-143178] | 7.3 | < 4.3 | < 4.3 | < 4.3 | < 4.3 | < 4.3
25 | N#Cc1cccc(CN2CCC(c3nc(-c4ccc(C(F)(F)F)nc4)no3)CC2)c1 [TCMDC-143179] | < 4 | < 4.3 | < 4.3 | < 4.3 | < 4.3 | < 4.3
26 | COc1ccc(-c2nc3ccncc3c(=O)n2CCOc2ccccc2)cc1 [TCMDC-143182] | 7.4 | < 4.3 | < 4.3 | < 4.3 | < 4.3 | < 4.3
27 | O=C(CCCn1cnc([N+](=O)[O-])n1)Nc1cccc(Cl)c1 [TCMDC-143186] | 4.3 | 6 | 5.9 |  |  | 
28 | CC1=C(C(=O)Nc2ccc(Cl)cc2)C(c2ccncc2)n2ncc(C(=O)Nc3ccccc3)c2N1 (centres unmarked) [TCMDC-143187] | 6.9 | < 4.3 | < 4.3 | < 4.3 | < 4.3 | < 4.3
29 | Cc1ccc2c(c1)-c1onc(C(=O)N3CCCCC3c3cccnc3)c1CO2 (centres unmarked) [TCMDC-143191] | 7 | 4.7 | 4.4 |  |  | 
30 | COc1ccc(-c2cc(C)no2)cc1S(=O)(=O)Nc1ccc(F)c(Cl)c1 [TCMDC-143193] | < 4 | 4.8 | 4.4 |  |  | 
31 | O=C(Nc1ccc(C(=O)N2CCCC2c2ccc3c(c2)OCCCO3)cc1)c1ccco1 (centres unmarked) [TCMDC-143198] | 4.2 |  |  |  |  | 
32 | O=c1[nH]c(C=Cc2cccc(OCCOc3ccccc3)c2)nc(O)c1[N+](=O)[O-] [TCMDC-143209] | < 4 | < 4.3 | < 4.3 | < 4.3 | < 4.3 | < 4.3
33 | CN(Cc1cc2ccccc2s1)c1ncc2c(N)nc(N)nc2n1 [TCMDC-143232] | < 4 | 5.3 | 5.5 |  |  | 
34 | Clc1ccc(OCCN2CCCCC2c2cccnc2)c(Cl)c1 (centres unmarked) [TCMDC-143235] | 7.2 | 4.4 | 4.4 | 4.4 | 4.4 | 4.4
35 | O=C(NCCNc1noc(-c2ccc([N+](=O)[O-])cc2)n1)c1ccc(Cl)cc1 [TCMDC-143241] | < 4 | 5.4 | 5.5 |  |  | 
36 | CN(Cc1cccnc1)Cc1ccc(N2CCN(C(=O)C3(c4ccc(Cl)cc4)CC3)CC2)nc1 [TCMDC-143247] | 6.8 | 5.1 | 4.4 |  |  | 
37 | Cc1nn(C2CCS(=O)(=O)C2)c(C)c1CN(C)C(=O)C=Cc1sc2ccccc2c1Cl (centres unmarked) [TCMDC-143258] | 7.5 | 4.4 | 4.7 |  |  | 
38 | Cc1cc(C)nc(N2CCC(N(Cc3cccnc3)C(=O)c3cccc(C#N)c3)CC2)n1 [TCMDC-143272] | 6.9 | < 4.3 | < 4.3 | < 4.3 | < 4.3 | < 4.3
39 | CN(Cc1nnnn1C1CCN(Cc2ccc(-n3ccnc3)cc2)CC1)c1ccc(F)cc1F [TCMDC-143321] | 6.9 |  |  |  |  | 
40 | CN(Cc1ccccc1)Cc1nnnn1C1CCN(Cc2ccc(-n3ccnc3)cc2)CC1 [TCMDC-143322] | 7.3 |  |  |  |  | 
